# Measured values from patent publication US5563134A (Sandoz Ltd., priority 1993, dated 1996).
# Like-named read-outs stand apart in the source and are kept apart here.
# Columns and labels:
# [1] = test system: glutathione and protein from human myeloperoxidase and human leucocytes; assay: Reactive species formation and covalent binding of clozapine metabolites, tests as for clozapine
# [2] = test system: glutathione and protein from human myeloperoxidase and human leucocytes
# [3] = biological target: horseradish peroxidase (or human myeloperoxidase) (Homo sapiens, UniProt P05164); assay type: biochemical; settings: clozapine 100 μM, human myeloperoxidase 10 units, NADPH 10 mM, in place of horseradish peroxidase and GSH
# horseradish peroxidase (or human myeloperoxidase) (Homo sapiens, UniProt P05164), sequence (P05164 165-278 limits assumed): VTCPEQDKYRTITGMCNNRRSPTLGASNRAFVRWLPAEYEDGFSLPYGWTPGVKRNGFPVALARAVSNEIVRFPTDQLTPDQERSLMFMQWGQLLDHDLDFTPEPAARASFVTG
# horseradish peroxidase (or human myeloperoxidase) (Homo sapiens, UniProt P05164), sequence (P05164 279-745 limits assumed): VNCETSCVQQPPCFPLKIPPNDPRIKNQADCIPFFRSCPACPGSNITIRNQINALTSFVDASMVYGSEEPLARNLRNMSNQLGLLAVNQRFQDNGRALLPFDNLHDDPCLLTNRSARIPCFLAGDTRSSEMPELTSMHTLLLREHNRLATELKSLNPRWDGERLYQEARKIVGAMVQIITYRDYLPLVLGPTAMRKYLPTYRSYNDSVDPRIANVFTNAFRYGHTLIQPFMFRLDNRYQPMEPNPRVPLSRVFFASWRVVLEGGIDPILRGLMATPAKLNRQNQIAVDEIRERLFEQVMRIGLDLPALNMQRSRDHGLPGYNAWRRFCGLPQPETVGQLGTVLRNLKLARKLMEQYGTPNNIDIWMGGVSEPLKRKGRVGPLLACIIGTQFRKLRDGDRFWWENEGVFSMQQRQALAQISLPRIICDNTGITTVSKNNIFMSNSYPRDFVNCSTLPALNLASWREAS
# Procedure: (§1) Oxygen consumption has also been observed when horseradish peroxidase was replaced with human myeloperoxidase (10 units) and GSH with NADPH (10 mM).
# [4] = test system: horseradish peroxidase (or human myeloperoxidase); assay type: biochemical
# Procedure: as §1
# [5] = biological target: T1, horseradish peroxidase (Armoracia rusticana, UniProt P00433); assay: Clozapine metabolism by peroxidase, disappearance of UV absorption at 290 nm; assay type: biochemical
# T1 sequence (P00433 31-338 limits assumed): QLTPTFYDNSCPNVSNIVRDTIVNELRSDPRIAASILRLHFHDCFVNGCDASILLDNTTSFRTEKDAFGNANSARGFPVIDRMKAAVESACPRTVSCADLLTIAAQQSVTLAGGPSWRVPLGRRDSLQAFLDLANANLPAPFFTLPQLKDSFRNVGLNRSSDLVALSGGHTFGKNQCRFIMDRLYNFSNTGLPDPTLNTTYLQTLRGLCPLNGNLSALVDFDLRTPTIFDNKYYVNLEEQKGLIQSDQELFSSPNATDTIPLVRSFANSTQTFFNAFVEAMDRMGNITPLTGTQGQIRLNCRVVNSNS
# [6] = biological target: T1, horseradish peroxidase; assay: Electron spin resonance spectroscopy of radicals in a peroxidase system; settings: for Effect on ascorbyl radical concentration (ESR): 1 mM added to ascorbate/clozapine/horseradish peroxidase/hydrogen peroxide system
# [7] = test system: patients refractory and/or intolerant to classical antipsychotic drug treatment; settings: cited from earlier work
# [8] = test system: human myeloperoxidase or horseradish peroxidase; assay: HPLC with on-line radioactivity detection of tritium-labeled clozapine incubated with peroxidase and hydrogen peroxide; assay type: biochemical
# Procedure: For HPLC a reversed phase column (Supelco Inc., Bellefonte Pa. USA LC-18-DB, 5 μm, 250×4.6 mm) was used. The mobile phase consisted of (NH4)2 CO3 buffer pH 8.5 (solvent A) and acetonitrile (solvent B). The proportion of solvent B was 0% for 5 minutes and was increased to reach 20% at 10 minutes, 24% at 60 minutes and 80% at 100 minutes. […] Instead two radioactive peaks eluting at 28 and 53 minutes from the HPLC appeared.
# [9] = test system: granulocytes/polymorphonuclear leucocytes (PMN's); assay: Covalent binding of radiolabeled clozapine to isolated PMN's; assay type: cell-based, human
# Procedure: 4) In another test heparinized peripheral blood was obtained from normal, healthy male volunteers, and granulocytes/polymorphonuclear leucocytes (PMN's) were isolated within 1-2 hours using an isolation kit (United Technologies Packard, Los Alamos, USA). PMN's were suspended in RPMI 1640 (Gibco, Basel, Switzerland) medium and adjusted to about 4×10^6 cells/ml before fetal calf serum was added (10% v/v).
smiles,measurement,setting,value
"CN1CCN(C2=Nc3cc(O)ccc3Nc3ccccc32)CC1 [8-hydroxy-11-(4-methyl-1-piperazinyl)-5H-dibenzo[b,e][1,4]diazepine]",Formation of reactive species,"[1]; tests as for clozapine, worded ""can also be shown""",form reactive species such as free radicals
"CSc1ccc2c(c1)N=C(N1CCN(C)CC1)c1ccccc1N2 [8-methylthio-11-(4-methyl-1-piperazinyl)-5H-dibenzo[b,e][1,4]diazepine]",Formation of reactive species,[2],form reactive species such as free radicals
"CN1CCN(C2=Nc3cc(Cl)ccc3Nc3ccccc32)CC1 [clozapine, 8-chloro-11-(4-methyl-1-piperazinyl)-5H-dibenzo[b,e][1,4]diazepine]",Oxygen consumption,[3],observed
same,Oxygen consumption as indicator of radical formation,"[4]; clozapine 100 μM, horseradish peroxidase 5 μg/ml, GSH 10 mM, pH 7.4",indicates an initial clozapine radical formation
same,Clozapine metabolism by peroxidases (disappearance of UV absorption at 290 nm),"[5]; clozapine 100 μM, 1-5 μg/ml horseradish peroxidase, 50 μM hydrogen peroxide, pH 7.4",demonstrated
same,Increase in steady-state concentration of the ascorbyl radical when clozapine is present,"[6]; 100 μM sodium ascorbate, 100 μM clozapine, horseradish peroxidase 8.3 μg/ml, hydrogen peroxide 50 μM, pH 7.4",over two fold
same,Glutathionyl thiyl radicals by ESR (DMPO trapping),"[6]; absence of sodium ascorbate, DMPO 100 mM",detected
same,Antipsychotic efficacy compared with standard neuroleptics,[7]; clinical studies,superior
same,Patients refractory to standard neuroleptics who significantly improved,[7]; clozapine treatment,approximately 30%
same,Risk of granulocytopenia and agranulocytosis,[7]; clozapine treatment,apparent increased risk
same,Covalent binding of clozapine-derived material to the enzyme (coelution of radioactivity with enzymatic protein),"[8]; clozapine 100 μM, enzyme and hydrogen peroxide present",Covalent binding of clozapine-derived material to the enzyme was indicated
"CSc1ccc2c(c1)N=C(N1CCNCC1)c1ccccc1N2 [8-methylthio-11-(1-piperazinyl)-5H-dibenzo-[b,e][1,4]diazepine]",Formation of reactive species,[2],form reactive species such as free radicals
"O=C1O[C@H]([C@@H](O)CO)C(O)=C1O [ascorbic acid, L-ascorbic acid]",Effect on covalent binding of clozapine and its metabolites,"[1]; intact human cells, radical scavenger",prevented
N[C@@H](CCC(=O)N[C@@H](CS)C(=O)NCC(=O)O)C(=O)O [glutathione],Effect on ascorbyl radical concentration (ESR),[6],only marginally affected
same,Effect on covalent binding to the enzymatic protein and metabolite formation,"[8]; GSH 10 mM, pH 7.4, added to standard incubation",reduced but to a lesser extent
"Clc1ccc2c(c1)N=C(N1CCNCC1)c1ccccc1N2 [8-chloro-11-(1-piperazinyl)-5H-dibenzo[b,e][1,4]diazepine]",Formation of reactive species,[2],form reactive species such as free radicals
O=C1O[C@H]([C@@H](O)CO)C([O-])=C1O.[Na+] [sodium ascorbate],Effect on oxygen consumption i.e. initial clozapine radical formation,[4]; sodium ascorbate 0.7 mM,prevented
same,Effect on metabolism of clozapine (UV signal changes),[5]; sodium ascorbate 0.7 mM added to the incubation,reversed
same,Effect on clozapine metabolism (metabolite formation),[8]; sodium ascorbate 0.7 mM,completely reversed
same,Effect on covalent binding of clozapine to enzymatic protein,[8]; sodium ascorbate 0.7 mM,no radioactivity coeluted with the enzymatic protein
same,Effect on clozapine binding to PMN's,"[9]; 5 mM sodium ascorbate, incubations containing opsonized zymosan",reduction of clozapine binding to PMN's
same,Effect on covalent binding of clozapine to PMN's,"[9]; radiolabeled clozapine and sodium ascorbate incubated together with PMN's, worded ""may also be shown""",reduction of covalent binding
"C[N+]1([O-])CCN(C2=Nc3cc(Cl)ccc3Nc3ccccc32)CC1 [8-chloro-11-(4-methyl-4-oxo-1-piperazinyl)-5H-dibenzo[b,e][1,4]diazepine]",Formation of reactive species,[2],form reactive species such as free radicals
"Oc1ccc2c(c1)N=C(N1CCNCC1)c1ccccc1N2 [8-hydroxy-11-(1-piperazinyl)-5H-dibenzo[b,e][1,4]diazepine]",Formation of reactive species,[2],form reactive species such as free radicals
NC(=O)C1=CN([C@@H]2O[C@H](COP(=O)(O)OP(=O)(O)OC[C@H]3O[C@@H](n4cnc5c(N)ncnc54)[C@H](OP(=O)(O)O)[C@@H]3O)[C@@H](O)[C@H]2O)C=CC1 [NADPH],Effect on ascorbyl radical concentration (ESR),[6],almost absent
"CN1CCN(C2=Nc3cc(Cl)c(O)cc3Nc3ccccc32)CC1 [7-hydroxy-8-chloro-11-(4-methyl-1-piperazinyl)-5H-dibenzo[b,e][1,4]diazepine]",Formation of reactive species,[2],form reactive species such as free radicals
